The NIST ThermoML archive (doi:10.1021/je100237h)

Conditions: Liquid; for viscosity: 101.33 kPa, Concentric cylinders viscometry; for mass density: Vibrating tube method

COC(=O)CCCCC(=O)OC [dimethyl 1,6-hexanedioate]
Conditions | viscosity [mPa·s]
283.15 K | 4.39
288.15 K | 3.82
293.15 K | 3.36
298.15 K | 2.98
303.15 K | 2.67
308.15 K | 2.4
313.15 K | 2.18
318.15 K | 1.99
323.15 K | 1.82
328.15 K | 1.68
333.15 K | 1.55
338.15 K | 1.44
343.15 K | 1.34
348.15 K | 1.25
353.15 K | 1.17
358.15 K | 1.1
363.15 K | 1.03
368.15 K | 0.97
373.15 K | 0.92

Conditions | mass density [kg/m3]
293.15 K, 100 kPa | 1061.5
293.15 K, 10000 kPa | 1067.7
293.15 K, 20000 kPa | 1073.6
293.15 K, 30000 kPa | 1079.2
293.15 K, 40000 kPa | 1084.5
293.15 K, 50000 kPa | 1089.6
293.15 K, 60000 kPa | 1094.7
293.15 K, 70000 kPa | 1099.5
293.15 K, 80000 kPa | 1104.2
293.15 K, 90000 kPa | 1108.5
293.15 K, 100000 kPa | 1112.8
303.15 K, 100 kPa | 1051.8
303.15 K, 10000 kPa | 1058
303.15 K, 20000 kPa | 1064.4
303.15 K, 30000 kPa | 1070.5
303.15 K, 40000 kPa | 1076
303.15 K, 50000 kPa | 1081.5
303.15 K, 60000 kPa | 1086.7
303.15 K, 70000 kPa | 1091.5
303.15 K, 80000 kPa | 1096.1
303.15 K, 90000 kPa | 1100.6
303.15 K, 100000 kPa | 1104.7
303.15 K, 110000 kPa | 1108.9
303.15 K, 120000 kPa | 1113.1
303.15 K, 130000 kPa | 1117
303.15 K, 140000 kPa | 1120.9
313.15 K, 100 kPa | 1042.1
313.15 K, 10000 kPa | 1048.9
313.15 K, 20000 kPa | 1055.6
313.15 K, 30000 kPa | 1061.8
313.15 K, 40000 kPa | 1067.5
313.15 K, 50000 kPa | 1073.2
313.15 K, 60000 kPa | 1078.6
313.15 K, 70000 kPa | 1083.7
313.15 K, 80000 kPa | 1088.7
313.15 K, 90000 kPa | 1093.2
313.15 K, 100000 kPa | 1097.2
313.15 K, 110000 kPa | 1101.5
313.15 K, 120000 kPa | 1105.6
313.15 K, 130000 kPa | 1109.8
313.15 K, 140000 kPa | 1113.8
323.15 K, 100 kPa | 1031.6
323.15 K, 10000 kPa | 1038.9
323.15 K, 20000 kPa | 1045.7
323.15 K, 30000 kPa | 1052.1
323.15 K, 40000 kPa | 1058.3
323.15 K, 50000 kPa | 1063.9
323.15 K, 60000 kPa | 1069.1
323.15 K, 70000 kPa | 1074.4
323.15 K, 80000 kPa | 1079.3
323.15 K, 90000 kPa | 1084.2
323.15 K, 100000 kPa | 1088.9
323.15 K, 110000 kPa | 1093.3
323.15 K, 120000 kPa | 1097.9
323.15 K, 130000 kPa | 1102.2
323.15 K, 140000 kPa | 1106.2
333.15 K, 100 kPa | 1022.6
333.15 K, 10000 kPa | 1029.6
333.15 K, 20000 kPa | 1036.8
333.15 K, 30000 kPa | 1043.6
333.15 K, 40000 kPa | 1049.9
333.15 K, 50000 kPa | 1056
333.15 K, 60000 kPa | 1061.5
333.15 K, 70000 kPa | 1066.9
333.15 K, 80000 kPa | 1072
333.15 K, 90000 kPa | 1076.9
333.15 K, 100000 kPa | 1082
333.15 K, 110000 kPa | 1086.8
333.15 K, 120000 kPa | 1091.1
333.15 K, 130000 kPa | 1095.5
333.15 K, 140000 kPa | 1099.8
343.15 K, 100 kPa | 1012.3
343.15 K, 10000 kPa | 1020.4
343.15 K, 20000 kPa | 1028.1
343.15 K, 30000 kPa | 1034.8
343.15 K, 40000 kPa | 1041.3
343.15 K, 50000 kPa | 1047.6
343.15 K, 60000 kPa | 1053.5
343.15 K, 70000 kPa | 1058.6
343.15 K, 80000 kPa | 1064.2
343.15 K, 90000 kPa | 1069.3
343.15 K, 100000 kPa | 1074.1
343.15 K, 110000 kPa | 1079
343.15 K, 120000 kPa | 1083.9
343.15 K, 130000 kPa | 1088.3
343.15 K, 140000 kPa | 1092.4
353.15 K, 100 kPa | 1002.2
353.15 K, 10000 kPa | 1010.8
353.15 K, 20000 kPa | 1018.4
353.15 K, 30000 kPa | 1025.6
353.15 K, 40000 kPa | 1032.8
353.15 K, 50000 kPa | 1039
353.15 K, 60000 kPa | 1045.4
353.15 K, 70000 kPa | 1051.2
353.15 K, 80000 kPa | 1056.7
353.15 K, 90000 kPa | 1061.9
353.15 K, 100000 kPa | 1067.3
353.15 K, 110000 kPa | 1072.2
353.15 K, 120000 kPa | 1076.6
353.15 K, 130000 kPa | 1081.3
353.15 K, 140000 kPa | 1085.6
363.15 K, 100 kPa | 992.2
363.15 K, 10000 kPa | 1000.6
363.15 K, 20000 kPa | 1008.9
363.15 K, 30000 kPa | 1016.6
363.15 K, 40000 kPa | 1023.7
363.15 K, 50000 kPa | 1030.4
363.15 K, 60000 kPa | 1036.8
363.15 K, 70000 kPa | 1042.9
363.15 K, 80000 kPa | 1048.5
363.15 K, 90000 kPa | 1053.9
363.15 K, 100000 kPa | 1059.2
363.15 K, 110000 kPa | 1064.3
363.15 K, 120000 kPa | 1069.1
363.15 K, 130000 kPa | 1074.1
363.15 K, 140000 kPa | 1078.5
373.15 K, 100 kPa | 981.9
373.15 K, 10000 kPa | 991
373.15 K, 20000 kPa | 999.5
373.15 K, 30000 kPa | 1007.7
373.15 K, 40000 kPa | 1014.8
373.15 K, 50000 kPa | 1021.8
373.15 K, 60000 kPa | 1029
373.15 K, 70000 kPa | 1035
373.15 K, 80000 kPa | 1040.9
373.15 K, 90000 kPa | 1046.4
373.15 K, 100000 kPa | 1051
373.15 K, 110000 kPa | 1056.3
373.15 K, 120000 kPa | 1061.6
373.15 K, 130000 kPa | 1066
373.15 K, 140000 kPa | 1071.2
383.15 K, 100 kPa | 972.2
383.15 K, 10000 kPa | 981.1
383.15 K, 20000 kPa | 990.4
383.15 K, 30000 kPa | 998.7
383.15 K, 40000 kPa | 1006.3
383.15 K, 50000 kPa | 1013.9
383.15 K, 60000 kPa | 1020.5
383.15 K, 70000 kPa | 1027
383.15 K, 80000 kPa | 1033.2
383.15 K, 90000 kPa | 1039
383.15 K, 100000 kPa | 1044.7
383.15 K, 110000 kPa | 1050.1
383.15 K, 120000 kPa | 1055.2
383.15 K, 130000 kPa | 1059.9
383.15 K, 140000 kPa | 1065.1
393.15 K, 100 kPa | 961.7
393.15 K, 10000 kPa | 971.7
393.15 K, 20000 kPa | 981.5
393.15 K, 30000 kPa | 990.1
393.15 K, 40000 kPa | 998.2
393.15 K, 50000 kPa | 1005.9
393.15 K, 60000 kPa | 1013
393.15 K, 70000 kPa | 1019.7
393.15 K, 80000 kPa | 1026
393.15 K, 90000 kPa | 1032.1
393.15 K, 100000 kPa | 1037.7
393.15 K, 110000 kPa | 1043.1
393.15 K, 120000 kPa | 1048.7
393.15 K, 130000 kPa | 1053.8
393.15 K, 140000 kPa | 1058.5
403.15 K, 100 kPa | 951.5
403.15 K, 10000 kPa | 961.4
403.15 K, 20000 kPa | 971.6
403.15 K, 30000 kPa | 980.8
403.15 K, 40000 kPa | 989.3
403.15 K, 50000 kPa | 997.3
403.15 K, 60000 kPa | 1004.5
403.15 K, 70000 kPa | 1011.5
403.15 K, 80000 kPa | 1018.2
403.15 K, 90000 kPa | 1024.5
403.15 K, 100000 kPa | 1030.2
403.15 K, 110000 kPa | 1035.9
403.15 K, 120000 kPa | 1041.3
403.15 K, 130000 kPa | 1046.6
403.15 K, 140000 kPa | 1051.6
